Measurements published in ChEMBL document CHEMBL1201862, “PubChem BioAssay data set” (2004).
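In this assay, cells in 96-well plates receive the compound at five concentrations for 48 hours. Endpoints are linearly interpolated between the surrounding concentrations. GI50: concentration for 50% inhibition of growth.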 Calls of active or inactive are those of the source. Rule as the data show it: active = GI50 up to about 1.1 µM and inactive = higher.

Experiments:
Test in all cases: NCI anticancer screen, dose series, 48 h
786-0 = system: 786-0
CAKI-1 = system: CAKI-1
COLO 205 = system: COLO 205
HCT-15 = system: HCT-15
HOP-62 = system: HOP-62
HT-29 = system: HT-29
IGROV-1 = system: IGROV-1
NCI-H522 = system: NCI-H522
OVCAR-3 = system: OVCAR-3
OVCAR-8 = system: OVCAR-8
SF-268 = system: SF-268
SF-539 = system: SF-539
SNB-19 = system: SNB-19
SW-620 = system: SW-620
UACC-62 = system: UACC-62
UO-31 = system: UO-31
NCI-H226 = system: NCI-H226
SN12C = system: SN12C
SNB-75 = system: SNB-75

Row | Structure (SMILES) | GI50 (786-0) | GI50 (CAKI-1) | GI50 (COLO 205) | GI50 (HCT-15) | GI50 (HOP-62) | GI50 (HT-29) | GI50 (IGROV-1) | GI50 (NCI-H522) | GI50 (OVCAR-3) | GI50 (OVCAR-8) | GI50 (SF-268) | GI50 (SF-539) | GI50 (SNB-19) | GI50 (SW-620) | GI50 (UACC-62) | GI50 (UO-31) | GI50 (NCI-H226) | GI50 (SN12C) | GI50 (SNB-75)
1 | CCN(CC)c1ccc2cc(-c3nnc(-c4ccccc4)[nH]3)c(=O)oc2c1 | 14.3 µM (inactive) | 26.9 µM (inactive) | > 100 µM (inactive) | > 100 µM | 7.28 µM (inactive) | 33 µM (inactive) | 17.7 µM (inactive) | 18.7 µM (inactive) | 40.5 µM (inactive) | 3.78 µM (inactive) | 62.8 µM (inactive) | 13.8 µM (inactive) | 12.2 µM (inactive) | 33.7 µM (inactive) | > 100 µM (inactive) | 4.39 µM (inactive) | – | – | –
2 | Cc1ccc(NC(=O)CC/C(CC(=O)C(C)(C)C)=N\Nc2ccc([N+](=O)[O-])cc2[N+](=O)[O-])cc1C | 79.6 µM (inactive) | – | > 100 µM (inactive) | 41.5 µM | 0.0522 µM (active) | 57 µM (inactive) | 90.6 µM (inactive) | – | 0.0195 µM (active) | 59.6 µM (inactive) | > 100 µM (inactive) | 59.4 µM (inactive) | > 100 µM (inactive) | 46.3 µM (inactive) | 32.2 µM (inactive) | 53.2 µM (inactive) | > 100 µM (inactive) | – | –
3 | COc1cc(C2C(Cl)C(=O)N2NC(=O)Cc2ccccc2)ccc1O (stereo unspecified) | 83.2 µM (inactive) | > 100 µM (inactive) | > 100 µM (inactive) | > 100 µM | > 100 µM (inactive) | 73.3 µM (inactive) | > 100 µM (inactive) | 21.3 µM (inactive) | 33.3 µM (inactive) | > 100 µM (inactive) | > 100 µM (inactive) | – | 47.3 µM (inactive) | 68.4 µM (inactive) | 73.3 µM (inactive) | 22.6 µM (inactive) | 55.6 µM (inactive) | > 100 µM (inactive) | 35.8 µM (inactive)
4 | N#CC(c1ccccn1)c1nc2ccccc2[nH]1 (stereo unspecified) | 97.5 µM (inactive) | > 100 µM (inactive) | > 100 µM (inactive) | – | > 100 µM (inactive) | > 100 µM (inactive) | – | > 100 µM (inactive) | > 100 µM (inactive) | 84.5 µM (inactive) | > 100 µM (inactive) | – | > 100 µM (inactive) | > 100 µM (inactive) | 70.3 µM (inactive) | > 100 µM (inactive) | > 100 µM (inactive) | > 100 µM (inactive) | 49.3 µM (inactive)
5 | OCC(O)C(OC1OC(CO)C(O)C(O)C1O)c1nn(-c2ccc(F)cc2)c2nc3cc(Cl)c(Cl)cc3cc12 (stereo unspecified) | > 100 µM (inactive) | – | – | > 100 µM | > 100 µM (inactive) | > 100 µM (inactive) | – | > 100 µM (inactive) | > 100 µM (inactive) | > 100 µM (inactive) | > 100 µM (inactive) | > 100 µM (inactive) | > 100 µM (inactive) | – | > 100 µM (inactive) | > 100 µM (inactive) | – | > 100 µM (inactive) | > 100 µM (inactive)
6 | CC(C)[C@H](COC(C)(C)C)/N=C/N1CSc2ccccc21 | 49.8 µM (inactive) | – | 18.9 µM (inactive) | 84.9 µM | 41.2 µM (inactive) | 28.9 µM (inactive) | 34 µM (inactive) | 31.9 µM (inactive) | 23 µM (inactive) | 35.2 µM (inactive) | 59 µM (inactive) | 23.5 µM (inactive) | 37.8 µM (inactive) | 35.4 µM (inactive) | 48.8 µM (inactive) | 96.2 µM (inactive) | 48.3 µM (inactive) | 28.1 µM (inactive) | 30.3 µM (inactive)
7 | CCCCCCCCCCCCC(Br)C(C)=O (stereo unspecified) | > 100 µM (inactive) | – | > 100 µM (inactive) | > 100 µM | > 100 µM (inactive) | > 100 µM (inactive) | > 100 µM (inactive) | > 100 µM (inactive) | > 100 µM (inactive) | > 100 µM (inactive) | > 100 µM (inactive) | > 100 µM (inactive) | > 100 µM (inactive) | > 100 µM (inactive) | > 100 µM (inactive) | > 100 µM (inactive) | > 100 µM (inactive) | > 100 µM (inactive) | –
8 | ClCc1ccc(C2OCCO2)cc1 | 23.3 µM (inactive) | – | 19.1 µM (inactive) | 16.7 µM | 24.9 µM (inactive) | 15.9 µM (inactive) | > 72.4 µM (inactive) | 14.8 µM (inactive) | 22.3 µM (inactive) | 17.5 µM (inactive) | > 100 µM (inactive) | > 42.3 µM (inactive) | > 43 µM (inactive) | 16.8 µM (inactive) | > 36.6 µM (inactive) | > 40.7 µM (inactive) | 16.9 µM (inactive) | 16.6 µM (inactive) | 22.4 µM (inactive)
9 | COc1ccc(/C=N/N=C(\N)NO)c(Cl)c1O | 18.4 µM (inactive) | 10.3 µM (inactive) | 33 µM (inactive) | 5.46 µM | 6.21 µM (inactive) | – | 44.9 µM (inactive) | 6.82 µM (inactive) | 4.69 µM (inactive) | 12.2 µM (inactive) | 13.2 µM (inactive) | 12.2 µM (inactive) | 41 µM (inactive) | 19.4 µM (inactive) | 12.9 µM (inactive) | 11.2 µM (inactive) | 8.32 µM (inactive) | 27.4 µM (inactive) | –
10 | Cc1ccccc1NC(=O)/C=N/O | > 100 µM (inactive) | > 100 µM (inactive) | > 100 µM (inactive) | > 100 µM | > 100 µM (inactive) | > 100 µM (inactive) | > 100 µM (inactive) | > 100 µM (inactive) | > 100 µM (inactive) | > 100 µM (inactive) | > 100 µM (inactive) | – | > 100 µM (inactive) | > 100 µM (inactive) | 14.6 µM (inactive) | > 100 µM (inactive) | > 100 µM (inactive) | > 100 µM (inactive) | > 100 µM (inactive)
11 | O=C1C(Cl)C(c2ccccc2O)N1n1cnc2ccccc2c1=O (stereo unspecified) | 47.5 µM (inactive) | 37.8 µM (inactive) | 30.1 µM (inactive) | 2.99 µM | 48.5 µM (inactive) | 87.3 µM (inactive) | 61.7 µM (inactive) | 23.6 µM (inactive) | > 100 µM (inactive) | 92.7 µM (inactive) | 43.4 µM (inactive) | – | 63.8 µM (inactive) | 58.7 µM (inactive) | 44.3 µM (inactive) | 50 µM (inactive) | 62.2 µM (inactive) | 7.08 µM (inactive) | 20.4 µM (inactive)
12 | COC1CCC(OS(C)(=O)=O)C(CO)O1 (stereo unspecified) | > 100 µM (inactive) | – | – | > 100 µM | > 100 µM (inactive) | > 100 µM (inactive) | > 100 µM (inactive) | > 100 µM (inactive) | > 100 µM (inactive) | > 100 µM (inactive) | – | > 100 µM (inactive) | – | > 100 µM (inactive) | > 100 µM (inactive) | > 100 µM (inactive) | – | > 100 µM (inactive) | > 100 µM (inactive)
13 | O=C(N/C(=C\c1ccc([N+](=O)[O-])cc1)c1nc2cc(Cl)ccc2[nH]1)c1ccccc1 | 17.7 µM (inactive) | 24.4 µM (inactive) | – | 13.3 µM | – | 20.3 µM (inactive) | 16.9 µM (inactive) | 11.9 µM (inactive) | 21.8 µM (inactive) | 30.1 µM (inactive) | 18.4 µM (inactive) | 19.1 µM (inactive) | 24.9 µM (inactive) | 19.5 µM (inactive) | 18.7 µM (inactive) | 13.9 µM (inactive) | – | 20.7 µM (inactive) | –
14 | COC(=O)C(Nc1ccc(OC)cc1)c1ccccc1 (stereo unspecified) | > 100 µM (inactive) | > 100 µM (inactive) | > 100 µM (inactive) | > 100 µM | > 100 µM (inactive) | > 100 µM (inactive) | > 100 µM (inactive) | > 100 µM (inactive) | > 100 µM (inactive) | > 100 µM (inactive) | > 100 µM (inactive) | > 100 µM (inactive) | > 100 µM (inactive) | > 100 µM (inactive) | > 100 µM (inactive) | > 100 µM (inactive) | – | > 100 µM (inactive) | –
15 | Cc1ccc(NC(=O)NC23CC4CC(CC(F)(C4)C2)C3)cc1 | > 100 µM (inactive) | – | > 100 µM (inactive) | – | > 100 µM (inactive) | 53.6 µM (inactive) | > 100 µM (inactive) | 99.5 µM (inactive) | > 100 µM (inactive) | > 100 µM (inactive) | – | > 100 µM (inactive) | > 100 µM (inactive) | > 100 µM (inactive) | 69.3 µM (inactive) | 40.1 µM (inactive) | – | – | 25.2 µM (inactive)
16 | CS/C(=N\c1ccccc1Cl)NC(=O)c1ccc(Br)cc1 | 27.1 µM (inactive) | 32.1 µM (inactive) | > 100 µM (inactive) | > 100 µM | 21.3 µM (inactive) | > 100 µM (inactive) | 62.8 µM (inactive) | 40.6 µM (inactive) | > 100 µM (inactive) | > 100 µM (inactive) | 59.8 µM (inactive) | 37.2 µM (inactive) | 33.1 µM (inactive) | > 100 µM (inactive) | 28.4 µM (inactive) | > 100 µM (inactive) | 41 µM (inactive) | > 100 µM (inactive) | –
17 | Cc1ccccc1NC(=O)/C(=N\NC(N)=S)C(C#N)c1ccccc1 (stereo unspecified) | > 100 µM (inactive) | – | > 100 µM (inactive) | > 100 µM | > 100 µM (inactive) | > 100 µM (inactive) | > 100 µM (inactive) | > 100 µM (inactive) | > 100 µM (inactive) | > 100 µM (inactive) | > 100 µM (inactive) | > 100 µM (inactive) | > 100 µM (inactive) | > 100 µM (inactive) | > 100 µM (inactive) | > 100 µM (inactive) | > 100 µM (inactive) | > 100 µM (inactive) | > 100 µM (inactive)
